Usually IC50 stands for the concentration needed to halve the response being measured.

The values that follow come from patent US8013153B2, “Substituted pyrimidine kinase inhibitors” (Janssen Pharmaceutica, N.V., priority 2006, dated 2011).

Molecules are shown by their SMILES. Like-named read-outs stand apart in the source and are kept apart here.

For experiment [1], the target named is T1, CDK1:Cyclin-B (Homo sapiens, UniProt P06493).
T1 construct: purchased New England Biolabs, Beverly, Mass; 6020; host or cells: insect cells
Nature of the experiment: CDK1 Screening Assay. In kind it is biochemical. On the procedure: (§1) A kinase reaction mixture was prepared containing 50 mM Tris-HCl pH=8, 10 mM MgCl2, 0.1 mM Na3PO4, 1 mM DTT, 10 μM ATP, 0.025 μM biotinylated histone-H1 peptide substrate and 0.2 μCuries per well ^33P-γ-ATP (2000-3000 Ci/mmol). 70 μL of the kinase reaction mixture was dispensed into the well of a streptavidin coated FlashPlate™ (Cat. # SMP103, NEN, Boston, Mass.). Then 1 μL of test compound stock in 100% DMSO was added to the wells resulting in a final concentration of 1% DMSO in the reaction with a 100 μL final reaction volume.
(§2) The CDK1:Cyclin-B protein was diluted in 50 mM Tris-HCl pH=8.0, 0.1% BSA at a concentration of 1 ng per μL and 30 μL (30 ng enzyme per test well) was added to each well to initiate the reaction. The reaction was incubated for one hour at 30° C. At the end of the 1 hour incubation, the reaction was terminated by aspirating the mixture from the plate and washing the wells twice with PBS containing 100 mM EDTA. The histone-H1 biotinylated peptide substrate became immobilized on the Flashplate™ and the incorporation of ^33P-γ-ATP was measured by reading the plate on a scintillation counter. Inhibition of the enzymatic activity of CDK1 was measured by observing a reduced amount of ^33P-γ-ATP incorporated into the immobilized peptide.
The CDK1 used was isolated from insect cells expressing both the human CDK1 catalytic subunit and its positive regulatory subunit cyclin B (New England Biolabs, Beverly, Mass., Cat. #6020).

Experiment [2] concerns the target T2, rat VEGF-R2 kinase domain (Rattus norvegicus, UniProt O08775).
T2 construct: amino acids 786-1343 of the rat VEGF-R2 kinase domain; polyhistidine (N)
Nature of the experiment: VEGF-R2 Screening Assay. Type of experiment: biochemical.

In experiment [3] the target is T3, HER2 cytoplasmic domain (Homo sapiens, UniProt P04626).
T3 construct: polyhistidine (N)
Briefly: HER2 Kinase Screening Assay. In kind it is biochemical. As to conditions: > means no observed 50% inhibition at the indicated test concentration; ~ means approximately 50% inhibition at that concentration. The method, then: as §1, §2
The HER2 kinase assay was carried out using the CDK kinase assay procedure except that the enzyme was replaced with a HER2 construct containing a polyhistidine tag at the N-terminus followed by 24 additional amino acids and the HER2 cytoplasmic domain beginning at amino acid 676 (Accession #M11730) to the end.

Experiment [4] has as its target T4, murine Aurora-A (Mus musculus, UniProt P97477).
T4 construct: replaced with the full length protein encoding the murine Aurora-A; made in house; host or cells: sf9 insect cells
T4 sequence (P97477 1-395): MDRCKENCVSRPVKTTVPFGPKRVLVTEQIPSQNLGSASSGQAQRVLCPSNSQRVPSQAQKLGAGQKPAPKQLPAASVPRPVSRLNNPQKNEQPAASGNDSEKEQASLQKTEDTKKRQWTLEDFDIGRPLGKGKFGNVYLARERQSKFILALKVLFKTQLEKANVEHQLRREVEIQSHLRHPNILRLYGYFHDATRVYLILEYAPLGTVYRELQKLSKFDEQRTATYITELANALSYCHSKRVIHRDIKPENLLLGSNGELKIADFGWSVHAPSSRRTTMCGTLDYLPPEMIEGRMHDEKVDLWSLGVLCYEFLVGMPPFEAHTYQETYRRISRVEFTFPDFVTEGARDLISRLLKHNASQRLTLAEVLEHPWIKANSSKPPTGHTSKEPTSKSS
Nature of the experiment: Aurora-A Screening Assay. In kind it is biochemical. On the procedure:
as §1, §2
The Aurora-A kinase assay was carried out using the CDK kinase assay procedure except that the enzyme was replaced with the full length protein encoding the murine Aurora-A (Accession #GB BC014711) expressed and purified from sf9 insect cells.

Experiment [5] relates to HCT-116 colon carcinoma. Nature of the experiment: Inhibition of in vitro cell proliferation (HCT116).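 Also: cells exposed to compound for 24 h, then 14C-thymidine added for a further 24 h and its uptake into DNA counted by scintillation, DMSO-only wells as control.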 In kind it is cell-based, human. The conditions noted are these: Homo sapiens, HCT-116, 14C-thymidine incorporation. A general note: Uptake of a labelled nucleoside into DNA is a usual measure of proliferation.
The test system of experiment [6] is HeLa cervical adenocarcinoma. Briefly: Inhibition of in vitro cell proliferation (HeLa).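 Also: cells exposed to compound for 24 h, then labelled 24 h with methyl 14C-thymidine, with uptake into DNA counted by scintillation against DMSO-only control wells.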 In kind it is cell-based, human. As to conditions: Homo sapiens, 14C-thymidine incorporation.
Experiment [7] relates to A375 malignant melanoma. Nature of the experiment: Inhibition of in vitro cell proliferation (A375).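 Also: cells plated for 24 h, given compound for 24 h, then labelled with 14C-thymidine for another 24 h, with DMSO-only wells as control and counts read by scintillation.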 In kind it is cell-based, human. The conditions noted are these: Homo sapiens, A-375, 14C-thymidine incorporation.
Setting [8] is: > means no observed 50% inhibition at the indicated test concentration, ~ means approximately 50% inhibition at that concentration, read-out: IC50 VEGF-R2.

T2 sequence (O08775 786-1343): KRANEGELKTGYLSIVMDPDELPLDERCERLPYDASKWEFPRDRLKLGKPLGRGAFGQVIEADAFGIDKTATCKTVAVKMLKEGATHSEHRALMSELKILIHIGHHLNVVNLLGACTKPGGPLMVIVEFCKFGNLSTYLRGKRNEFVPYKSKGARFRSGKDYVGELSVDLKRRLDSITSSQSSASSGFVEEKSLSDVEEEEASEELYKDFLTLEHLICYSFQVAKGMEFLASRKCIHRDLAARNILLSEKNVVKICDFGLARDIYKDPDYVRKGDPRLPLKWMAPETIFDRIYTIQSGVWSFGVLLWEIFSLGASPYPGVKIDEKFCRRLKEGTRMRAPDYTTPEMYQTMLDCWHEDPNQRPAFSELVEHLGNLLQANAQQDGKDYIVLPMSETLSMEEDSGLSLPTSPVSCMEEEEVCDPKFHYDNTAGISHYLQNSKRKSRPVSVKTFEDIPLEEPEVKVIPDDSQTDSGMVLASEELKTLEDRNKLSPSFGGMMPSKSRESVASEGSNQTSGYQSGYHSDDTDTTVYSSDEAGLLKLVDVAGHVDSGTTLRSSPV
T1 sequence (P06493 whole entry): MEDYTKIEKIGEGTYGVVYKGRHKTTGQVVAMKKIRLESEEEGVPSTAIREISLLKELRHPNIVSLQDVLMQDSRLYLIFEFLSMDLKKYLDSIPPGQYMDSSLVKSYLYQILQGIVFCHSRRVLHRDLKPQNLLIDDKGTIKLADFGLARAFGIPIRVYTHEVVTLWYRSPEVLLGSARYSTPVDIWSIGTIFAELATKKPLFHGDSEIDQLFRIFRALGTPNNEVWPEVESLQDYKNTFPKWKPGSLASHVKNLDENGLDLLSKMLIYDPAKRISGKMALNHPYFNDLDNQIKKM
T1 sequence (P14635 whole entry partner): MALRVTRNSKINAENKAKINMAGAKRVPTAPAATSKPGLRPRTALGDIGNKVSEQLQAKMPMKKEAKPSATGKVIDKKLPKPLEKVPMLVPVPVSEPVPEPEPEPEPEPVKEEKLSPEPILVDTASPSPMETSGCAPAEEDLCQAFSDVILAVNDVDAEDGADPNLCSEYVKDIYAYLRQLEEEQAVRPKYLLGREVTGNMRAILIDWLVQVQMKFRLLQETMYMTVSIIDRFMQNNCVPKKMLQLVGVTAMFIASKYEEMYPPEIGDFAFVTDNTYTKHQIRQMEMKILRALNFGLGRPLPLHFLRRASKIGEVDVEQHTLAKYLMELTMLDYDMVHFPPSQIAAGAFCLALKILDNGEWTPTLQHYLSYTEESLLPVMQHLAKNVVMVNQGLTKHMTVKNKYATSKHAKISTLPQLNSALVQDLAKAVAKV
T3 sequence (P04626 676-1255 limits assumed): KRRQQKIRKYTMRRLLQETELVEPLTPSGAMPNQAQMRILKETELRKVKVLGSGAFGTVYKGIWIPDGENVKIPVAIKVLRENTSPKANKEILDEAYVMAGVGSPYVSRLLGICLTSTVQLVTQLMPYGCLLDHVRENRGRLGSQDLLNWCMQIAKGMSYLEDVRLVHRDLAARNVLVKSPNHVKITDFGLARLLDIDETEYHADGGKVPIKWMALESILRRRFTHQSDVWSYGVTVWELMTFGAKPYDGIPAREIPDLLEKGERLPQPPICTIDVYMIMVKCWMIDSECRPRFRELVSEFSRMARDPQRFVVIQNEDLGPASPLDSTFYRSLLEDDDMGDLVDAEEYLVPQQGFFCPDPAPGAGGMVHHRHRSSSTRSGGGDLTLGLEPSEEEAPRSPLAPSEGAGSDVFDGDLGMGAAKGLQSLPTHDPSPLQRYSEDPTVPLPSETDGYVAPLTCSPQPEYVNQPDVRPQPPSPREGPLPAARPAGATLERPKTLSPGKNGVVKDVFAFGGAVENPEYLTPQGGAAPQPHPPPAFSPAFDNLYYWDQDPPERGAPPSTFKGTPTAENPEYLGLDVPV

As for `CNC(=O)n1c(C)cc2c(F)c(Oc3ncnc(N)c3C=NOC)ccc21` [Cpd 43, 5-[6-amino-5-(methoxyimino-methyl)-pyrimidin-4-yloxy]-4-fluoro-2-methyl-indole-1-carboxylic acid methylamide], the IC50 in experiment [1] is > 100 µM; in experiment [2] (setting [8]), ~1 µM; in experiment [3], > 10 µM; in experiment [4], > 100 µM.

Take `Cc1cc2c(F)c(Oc3ncnc(N)c3C=NOCCCN(C)C)ccc2[nH]1` [Cpd 17, 4-amino-6-(4-fluoro-2-methyl-1H-indol-5-yloxy)-pyrimidine-5-carbaldehyde O-(3-dimethylamino-propyl)-oxime]: the 50% inhibitory concentration (IC50) in experiment [1] was > 100 µM; in experiment [3], ~10 µM; in experiment [4] it was 33.8 µM.

As to `COCCCON=Cc1c(N)ncnc1Oc1ccc2[nH]c(C)cc2c1F` [Cpd 33, 4-amino-6-(4-fluoro-2-methyl-1H-indol-5-yloxy)-pyrimidine-5-carbaldehyde O-(3-methoxy-propyl)-oxime], the IC50 was > 100 µM in experiment [1]; 3.99 µM in experiment [3]; 0.438 µM in experiment [5]; 0.346 µM in experiment [6]; 0.3 µM in experiment [7]; > 10 µM in experiment [4].

`CCNC(=O)Nc1ccc(Oc2ncnc(N)c2C=NOCCOC)cc1Cl` [Cpd 104, 1-(4-{6-amino-5-[(2-methoxy-ethoxyimino)-methyl]-pyrimidin-4-yloxy}-2-chloro-phenyl)-3-ethyl-urea]: the half-maximal inhibitory concentration (IC50) in experiment [1] was > 100 µM; in experiment [2] (setting [8]) it was 0.041 µM; in experiment [3] it was > 100 µM; in experiment [4], > 100 µM.

As to `CCNC(=O)Cc1ccc(Oc2ncnc(N)c2C=NOC)cc1` [Cpd 101, 2-{4-[6-amino-5-(methoxyimino-methyl)-pyrimidin-4-yloxy]-phenyl}-N-ethyl-acetamide], the IC50 in experiment [1] was > 100 µM; in experiment [3], > 100 µM; in experiment [4], > 10 µM.

In the case of `CNC(=O)Cc1ccc(Oc2ncnc(N)c2C=NOC)cc1` [Cpd 96, 2-{4-[6-amino-5-(methoxyimino-methyl)-pyrimidin-4-yloxy]-phenyl}-N-methyl-acetamide], the half-inhibitory concentration (IC50) in experiment [1] was > 100 µM; in experiment [2] (IC50 VEGF-R2) it was 19.7 µM; in experiment [3], > 100 µM; in experiment [4] it was > 10 µM.

Turning to `CON=Cc1c(N)ncnc1Oc1cc(OC)cc(OC)c1` [Cpd 106, 4-amino-6-(3,5-dimethoxyphenoxy)-5-pyrimidinecarboxaldehyde O-methyloxime], the IC50 was > 100 µM in experiment [1], > 10 µM in experiment [2] (setting [8]), > 10 µM in experiment [3] and > 100 µM in experiment [4].

Take `CON=Cc1c(N)ncnc1Oc1ccc(OC(=O)Nc2cccc(Cl)c2)cc1` [Cpd 105, (3-chloro-phenyl)-carbamic acid 4-[6-amino-5-(methoxyimino-methyl)-pyrimidin-4-yloxy]-phenyl ester]: the half-inhibitory concentration (IC50) in experiment [1], in experiment [2] (setting [8]), in experiment [3] and in experiment [4] was > 100 µM each time.

Turning to `CON=Cc1c(N)ncnc1Oc1ccc2c(c1)OCO2` [Cpd 108, 4-amino-6-(1,3-benzodioxol-5-yloxy)-5-pyrimidinecarboxaldehyde O-methyloxime], the concentration for half-maximal inhibition (IC50) is > 100 µM in experiment [1], 3.96 µM in experiment [2] (setting [8]), > 10 µM in experiment [3] and > 10 µM in experiment [4].

`CCOC(=O)c1c(C)[nH]c2ccc(Oc3ncnc(N)c3/C=N/OC)cc12` [Cpd 107, 5-[{6-amino-5-[(E)-(methoxyimino)methyl]-4-pyrimidinyl}oxy]-2-methyl-1H-indole-3-carboxylic acid ethyl ester]: the IC50 in experiment [1], in experiment [2] (setting [8]), in experiment [3] and in experiment [4] was > 100 µM in each case.

Take `CON=Cc1c(N)ncnc1Oc1ccc(CC(=O)Nc2cccc(F)c2)cc1` [Cpd 100, 2-{4-[6-amino-5-(methoxyimino-methyl)-pyrimidin-4-yloxy]-phenyl}-N-(3-fluoro-phenyl)-acetamide]: the IC50 in experiment [1] is > 100 µM; in experiment [3], 2.8 µM; in experiment [4], > 100 µM.

Take `CON=Cc1c(N)ncnc1OCc1cccc(F)c1` [Cpd 112, 4-amino-6-[(3-fluorophenyl)methoxy]-5-pyrimidinecarboxaldehyde O-methyloxime]: the half-inhibitory concentration (IC50) in experiment [3] is > 10 µM.

Consider `C=CCON=Cc1c(N)ncnc1Oc1ccc2[nH]c(C)cc2c1F` [Cpd 31, 4-amino-6-(4-fluoro-2-methyl-1H-indol-5-yloxy)-pyrimidine-5-carbaldehyde O-allyl-oxime], for which the IC50 is > 100 µM in experiment [1]; > 100 µM in experiment [3]; 0.04 µM in experiment [5]; 0.042 µM in experiment [6]; 0.021 µM in experiment [7]; > 100 µM in experiment [4].

Regarding `CON=Cc1c(N)ncnc1OCc1ccc2ccccc2c1` [Cpd 115, 4-amino-6-(2-naphthalenylmethoxy)-5-pyrimidinecarboxaldehyde O-methyloxime], the IC50 in experiment [2] (setting [8]) was > 10 µM.

On to `CCNC(=O)Nc1ccc(Oc2ncnc(N)c2C=NOCCN2CCOCC2)cc1Cl` [Cpd 103, 1-(4-{6-amino-5-[(2-morpholin-4-yl-ethoxyimino)-methyl]-pyrimidin-4-yloxy}-2-chloro-phenyl)-3-ethyl-urea], for which the IC50 in experiment [1] was > 100 µM; in experiment [2] (setting [8]) it was 0.093 µM; in experiment [3], > 100 µM; in experiment [4] it was > 100 µM.

Turning to `CON=Cc1c(N)ncnc1Oc1ccc(F)c(Cl)c1` [Cpd 109, 4-amino-6-(3-chloro-4-fluorophenoxy)-5-pyrimidinecarboxaldehyde O-methyloxime], the IC50 in experiment [1] was > 100 µM; in experiment [2] (setting [8]), > 100 µM; in experiment [3], > 1 µM; in experiment [4], > 100 µM.

Take `CNC(=O)c1ccc(Oc2ncnc(N)c2C=NOC)cc1` [Cpd 98, 4-[6-amino-5-(methoxyimino-methyl)-pyrimidin-4-yloxy]-N-methyl-benzamide]: the half-maximal inhibitory concentration (IC50) in experiment [1], in experiment [3] and in experiment [4] was > 100 µM each time.

For `CCNC(=O)Oc1ccc(Oc2ncnc(N)c2C=NOC)cc1` [Cpd 102, ethyl-carbamic acid 4-[6-amino-5-(methoxyimino-methyl)-pyrimidin-4-yloxy]-phenyl ester], the values for the IC50 in experiment [1], in experiment [3] and in experiment [4] were > 100 µM, > 100 µM and > 10 µM, respectively.

As for `CO/N=C/c1c(N)ncnc1Oc1ccc2[nH]c(C)cc2c1` [Cpd 2, 4-amino-6-(2-methyl-1H-indol-5-yloxy)-pyrimidine-5-carbaldehyde O-methyl-oxime], the 50% inhibitory concentration (IC50) in experiment [1] is > 100 µM; in experiment [3], > 1 µM; in experiment [5], 0.386 µM; in experiment [6] it was 0.389 µM; in experiment [7], 0.356 µM; in experiment [4], ~100 µM.

As for `CO/N=C/c1c(N)ncnc1Oc1ccc2[nH]cc(CCNC(C)=O)c2c1` [Cpd 113, N-[2-{5-[{6-amino-5-[(E)-(methoxyimino)methyl]-4-pyrimidinyl}oxy]-1H-indol-3-yl}ethyl]-acetamide], the IC50 in experiment [1], in experiment [2] (setting [8]), in experiment [3] and in experiment [4] was > 100 µM in each case.
